Measurements as given in patent US20120029187A1, “HALOALKYLSULFONANILIDE DERIVATIVE” (Nissan Chemical Industries, Ltd., priority 2009, published 2012).

What was measured:
Type in all cases: in vivo
transplanted rice = experiment: Test Example 1: preemergence treatment under submerged conditions, effect on crop; conditions: dose 2.52 g/a
Outline: (§1)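 Score 0–5 by mortality (5: ≥90%; 0: <5%), read 3 weeks post-application. Paddy-type cups: alluvial soil under 4 cm water, weeds seeded plus transplanted 2.5-leaf rice; diluted EC dosed onto water surface same day as sowing, g/a basis; greenhouse 25 to 30° C.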

ducksalad [1] = experiment: Test Example 1: herbicidal effects in preemergence treatment under submerged conditions; conditions: dose 2.52 g/a
Outline: as §1

bulrush [2] = experiment: as above; conditions: dose 2.52 g/a
Outline: as §1

barnyardgrass [3] = experiment: as above; conditions: dose 2.52 g/a
Outline: as §1

large crabgrass [4] = experiment: Test Example 3: herbicidal effects in soil treatment; conditions: dose 3.2 g/a
Outline: (§2)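 Seeds were sown in sterilized diluvial soil and covered with about 1.5 cm of soil. Compounds, formulated as emulsifiable concentrates and diluted with water, were sprayed evenly over the soil surface at set doses in g/a. Herbicidal effect was scored on a rating scale three weeks later.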

beadstraw [5] = experiment: as above; conditions: dose 3.2 g/a
Outline: as §2

posumbu knotweed [6] = experiment: as above; conditions: dose 3.2 g/a
Outline: as §2

common lambsquater [7] = experiment: as above; conditions: dose 3.2 g/a
Outline: as §2

giant foxtail [8] = experiment: as above; conditions: dose 3.2 g/a
Outline: as §2

water foxtail [9] = experiment: as above; conditions: dose 3.2 g/a
Outline: as §2

common chickweed [10] = experiment: as above; conditions: dose 3.2 g/a
Outline: as §2

Italian ryegrass [11] = experiment: as above; conditions: dose 3.2 g/a
Outline: as §2

barnyardgrass [12] = experiment: as above; conditions: dose 3.2 g/a
Outline: as §2

velvetleaf [13] = experiment: as above; conditions: dose 3.2 g/a
Outline: as §2

redroot pigweed [14] = experiment: as above; conditions: dose 3.2 g/a
Outline: as §2

common ragweed [15] = experiment: as above; conditions: dose 3.2 g/a
Outline: as §2

large crabgrass [16] = experiment: Test Example 4: herbicidal effect in foliage treatment; conditions: dose 3.2 g/a, three weeks after application
Outline: (§3)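 A uniform foliar spray of emulsifiable concentrate, diluted with water to give the stated g/a dose, was applied to plants raised for 14 days from seed in sterilized diluvial soil at 25 to 30° C. Herbicidal effects were scored three weeks later.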

beadstraw [17] = experiment: as above; conditions: dose 3.2 g/a, three weeks after application
Outline: as §3

posumbu knotweed [18] = experiment: as above; conditions: dose 3.2 g/a, three weeks after application
Outline: as §3

common lambsquater [19] = experiment: as above; conditions: dose 3.2 g/a, three weeks after application
Outline: as §3

giant foxtail [20] = experiment: as above; conditions: dose 3.2 g/a, three weeks after application
Outline: as §3

water foxtail [21] = experiment: as above; conditions: dose 3.2 g/a, three weeks after application
Outline: as §3

common chickweed [22] = experiment: as above; conditions: dose 3.2 g/a, three weeks after application
Outline: as §3

Italian ryegrass [23] = experiment: as above; conditions: dose 3.2 g/a, three weeks after application
Outline: as §3

barnyardgrass [24] = experiment: as above; conditions: dose 3.2 g/a, three weeks after application
Outline: as §3

velvetleaf [25] = experiment: as above; conditions: dose 3.2 g/a, three weeks after application
Outline: as §3

redroot pigweed [26] = experiment: as above; conditions: dose 3.2 g/a, three weeks after application
Outline: as §3

common ragweed [27] = experiment: as above; conditions: dose 3.2 g/a, three weeks after application
Outline: as §3

ducksalad [28] = experiment: Test Example 2: herbicidal effects during the vegetation period under submerged conditions; conditions: treatment during the vegetation period under submerged conditions; dose 2.52 g/a
Outline: (§4)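 Barnyardgrass, bulrush and ducksalad were co-sown in alluvial soil flooded to 4 cm and grown in a greenhouse at 25 to 30° C. At the 1- or 2-leaf stage, water-diluted emulsifiable concentrates went onto the water surface at set doses (g/a). Herbicidal effect was scored three weeks later on a graded scale.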

bulrush [29] = experiment: as above; conditions: treatment during the vegetation period under submerged conditions; dose 2.52 g/a
Outline: as §4

barnyardgrass [30] = experiment: as above; conditions: treatment during the vegetation period under submerged conditions; dose 2.52 g/a
Outline: as §4

Compound | a: transplanted rice, effect on crop (evaluation scale 0-5) (transplanted rice) | C: ducksalad, herbicidal effect (evaluation scale 0-5) (ducksalad [1]) | B: bulrush, herbicidal effect (evaluation scale 0-5) (bulrush [2]) | A: barnyardgrass, herbicidal effect (evaluation scale 0-5) (barnyardgrass [3]) | D: large crabgrass, herbicidal effect (evaluation scale 0-5) (large crabgrass [4]) | O: beadstraw, herbicidal effect (evaluation scale 0-5) (beadstraw [5]) | M: posumbu knotweed, herbicidal effect (evaluation scale 0-5) (posumbu knotweed [6]) | L: common lambsquater, herbicidal effect (evaluation scale 0-5) (common lambsquater [7]) | E: giant foxtail, herbicidal effect (evaluation scale 0-5) (giant foxtail [8]) | G: water foxtail, herbicidal effect (evaluation scale 0-5) (water foxtail [9]) | N: common chickweed, herbicidal effect (evaluation scale 0-5) (common chickweed [10]) | H: Italian ryegrass, herbicidal effect (evaluation scale 0-5) (Italian ryegrass [11]) | A: barnyardgrass, herbicidal effect (evaluation scale 0-5) (barnyardgrass [12]) | I: velvetleaf, herbicidal effect (evaluation scale 0-5) (velvetleaf [13]) | K: redroot pigweed, herbicidal effect (evaluation scale 0-5) (redroot pigweed [14]) | J: common ragweed, herbicidal effect (evaluation scale 0-5) (common ragweed [15]) | D: large crabgrass, herbicidal effect (large crabgrass [16]) | M: posumbu knotweed, herbicidal effect (posumbu knotweed [18]) | L: common lambsquater, herbicidal effect (common lambsquater [19]) | E: giant foxtail, herbicidal effect (giant foxtail [20]) | other results
CCOC(=O)N(c1ccccc1CN1COC2(CCC2)CC1=O)S(=O)(=O)C(F)(F)F [II-63] | 1 (mortality of at least 5% and less than 20%) | 5 (mortality of 90% or above (nearly complete death)) | 5 (mortality of 90% or above (nearly complete death)) | 5 (mortality of 90% or above (nearly complete death)) | 5 (mortality of 90% or above (nearly complete death)) | 4 (mortality of at least 70% and less than 90%) | 4 (mortality of at least 70% and less than 90%) | 3 (mortality of at least 40% and less than 70%) | 5 (mortality of 90% or above (nearly complete death)) | 5 (mortality of 90% or above (nearly complete death)) | 5 (mortality of 90% or above (nearly complete death)) | 4 (mortality of at least 70% and less than 90%) | 5 (mortality of 90% or above (nearly complete death)) | 5 (mortality of 90% or above (nearly complete death)) | 4 (mortality of at least 70% and less than 90%) | 4 (mortality of at least 70% and less than 90%) | 4 (mortality of at least 70% and less than 90%) | 4 (mortality of at least 70% and less than 90%) | 3 (mortality of at least 40% and less than 70%) | 4 (mortality of at least 70% and less than 90%) | O: beadstraw, herbicidal effect (beadstraw [17]): 3 (mortality of at least 40% and less than 70%); G: water foxtail, herbicidal effect (water foxtail [21]): 5 (mortality of 90% or above (nearly complete death)); N: common chickweed, herbicidal effect (common chickweed [22]): 4 (mortality of at least 70% and less than 90%); H: Italian ryegrass, herbicidal effect (Italian ryegrass [23]): 4 (mortality of at least 70% and less than 90%); A: barnyardgrass, herbicidal effect (barnyardgrass [24]): 5 (mortality of 90% or above (nearly complete death)); I: velvetleaf, herbicidal effect (velvetleaf [25]): 5 (mortality of 90% or above (nearly complete death)); K: redroot pigweed, herbicidal effect (redroot pigweed [26]): 2 (mortality of at least 20% and less than 40%); J: common ragweed, herbicidal effect (common ragweed [27]): 4 (mortality of at least 70% and less than 90%); C: ducksalad, herbicidal effect (evaluation scale 0-5) (ducksalad [28]): 5 (mortality of 90% or above (nearly complete death)); B: bulrush, herbicidal effect (evaluation scale 0-5) (bulrush [29]): 5 (mortality of 90% or above (nearly complete death)); A: barnyardgrass, herbicidal effect (evaluation scale 0-5) (barnyardgrass [30]): 5 (mortality of 90% or above (nearly complete death))
O=C1CC2(CCCC2)OCN1Cc1ccccc1NS(=O)(=O)C(F)(F)F [II-64] | 0 (mortality of less than 5% (almost ineffective)) | 5 (mortality of 90% or above (nearly complete death)) | 5 (mortality of 90% or above (nearly complete death)) | 5 (mortality of 90% or above (nearly complete death)) | 5 (mortality of 90% or above (nearly complete death)) | 4 (mortality of at least 70% and less than 90%) | 5 (mortality of 90% or above (nearly complete death)) | 5 (mortality of 90% or above (nearly complete death)) | 5 (mortality of 90% or above (nearly complete death)) | 5 (mortality of 90% or above (nearly complete death)) | 4 (mortality of at least 70% and less than 90%) | 5 (mortality of 90% or above (nearly complete death)) | 5 (mortality of 90% or above (nearly complete death)) | 3 (mortality of at least 40% and less than 70%) | 4 (mortality of at least 70% and less than 90%) | 4 (mortality of at least 70% and less than 90%) | 4 (mortality of at least 70% and less than 90%) | 3 (mortality of at least 40% and less than 70%) | 2 (mortality of at least 20% and less than 40%) | 4 (mortality of at least 70% and less than 90%) | G: water foxtail, herbicidal effect (water foxtail [21]): 5 (mortality of 90% or above (nearly complete death)); N: common chickweed, herbicidal effect (common chickweed [22]): 4 (mortality of at least 70% and less than 90%); H: Italian ryegrass, herbicidal effect (Italian ryegrass [23]): 3 (mortality of at least 40% and less than 70%); A: barnyardgrass, herbicidal effect (barnyardgrass [24]): 4 (mortality of at least 70% and less than 90%); I: velvetleaf, herbicidal effect (velvetleaf [25]): 1 (mortality of at least 5% and less than 20%); K: redroot pigweed, herbicidal effect (redroot pigweed [26]): 0 (mortality of less than 5% (almost ineffective)); J: common ragweed, herbicidal effect (common ragweed [27]): 3 (mortality of at least 40% and less than 70%); C: ducksalad, herbicidal effect (evaluation scale 0-5) (ducksalad [28]): 5 (mortality of 90% or above (nearly complete death)); B: bulrush, herbicidal effect (evaluation scale 0-5) (bulrush [29]): 5 (mortality of 90% or above (nearly complete death)); A: barnyardgrass, herbicidal effect (evaluation scale 0-5) (barnyardgrass [30]): 5 (mortality of 90% or above (nearly complete death))
